{
  "source": "patent US12268685B2",
  "about": "“Dosing regimen for injectable cetirizine” (JDP THERAPEUTICS LLC, priority 2019, dated 2025)",
  "key": {"[1]": {"tested_on": "subjects with acute urticaria", "conditions": "for Developed other symptoms: No / Developed other symptoms: Yes / Needed additional medication: No / Needed additional medication: Yes / Needed medication prescribed at discharge: No / Needed medication prescribed at discharge: No medication prescribed / Needed medication prescribed at discharge: Yes / Recurrence of allergic symptoms: No / Recurrence of allergic symptoms: Yes / Returned to normal activity: No / Returned to normal activity: Yes: ITT; for Patient-rated pruritus severity score, 2 Hour Change from Baseline, mean (primary efficacy measure): LOCF"}, "[2]": {"conditions": "injection; cited from earlier work"}, "[3]": {"conditions": "24 hrs after discharge, count (percentage)"}, "[4]": {"conditions": "48 hrs after discharge, count (percentage)"}, "[5]": {"conditions": "ITT Population, listed as diphenhydramine"}, "[6]": {"conditions": "ITT Population, before treatment"}, "[7]": {"conditions": "ITT Population, count (percentage)"}},
  "note": "Like-named read-outs stand apart in the source and are kept apart here.",
  "data": [
    {"smiles": "CN(C)CCOC(c1ccccc1)c1ccccc1", "note": "[Diphenhydramine Injection]", "values": [
      {"measurement": "Developed other symptoms: No", "setting": "[1]; [3]", "value": "107 (79.26)"},
      {"measurement": "Developed other symptoms: Yes", "setting": "[1]; [3]", "value": "22 (16.30)"},
      {"measurement": "Needed additional medication: No", "setting": "[1]; [3]", "value": "94 (69.63)"},
      {"measurement": "Needed additional medication: Yes", "setting": "[1]; [3]", "value": "35 (25.93)"},
      {"measurement": "Needed medication prescribed at discharge: No", "setting": "[1]; [3]", "value": "39 (28.89)"},
      {"measurement": "Needed medication prescribed at discharge: No medication prescribed", "setting": "[1]; [3]", "value": "21 (15.56)"},
      {"measurement": "Needed medication prescribed at discharge: Yes", "setting": "[1]; [3]", "value": "69 (51.11)"},
      {"measurement": "Recurrence of allergic symptoms: No", "setting": "[1]; [3]", "value": "58 (42.96)"},
      {"measurement": "Recurrence of allergic symptoms: Yes", "setting": "[1]; [3]", "value": "71 (52.59)"},
      {"measurement": "Returned to normal activity: No", "setting": "[1]; [3]", "value": "29 (21.48)"},
      {"measurement": "Returned to normal activity: Yes", "setting": "[1]; [3]", "value": "100 (74.07)"},
      {"measurement": "Developed other symptoms: No", "setting": "[1]; [4]", "value": "114 (84.44)"},
      {"measurement": "Developed other symptoms: Yes", "setting": "[1]; [4]", "value": "13 (9.63)"},
      {"measurement": "Needed additional medication: No", "setting": "[1]; [4]", "value": "101 (74.81)"},
      {"measurement": "Needed additional medication: Yes", "setting": "[1]; [4]", "value": "26 (19.26)"},
      {"measurement": "Needed medication prescribed at discharge: No", "setting": "[1]; [4]", "value": "31 (22.96)"},
      {"measurement": "Needed medication prescribed at discharge: No medication prescribed", "setting": "[1]; [4]", "value": "20 (14.81)"},
      {"measurement": "Needed medication prescribed at discharge: Yes", "setting": "[1]; [4]", "value": "76 (56.30)"},
      {"measurement": "Recurrence of allergic symptoms: No", "setting": "[1]; [4]", "value": "74 (54.81)"},
      {"measurement": "Recurrence of allergic symptoms: Yes", "setting": "[1]; [4]", "value": "53 (39.26)"},
      {"measurement": "Returned to normal activity: No", "setting": "[1]; [4]", "value": "22 (16.30)"},
      {"measurement": "Returned to normal activity: Yes", "setting": "[1]; [4]", "value": "105 (77.78)"},
      {"measurement": "Course of subject-rated sedation scores after treatment", "setting": "[1]; ITT Population", "value": "remained above baseline through discharge"},
      {"measurement": "Patient-rated pruritus severity score, 1 Hour Assessment, mean", "setting": "[1]; ITT Population", "value": 0.83},
      {"measurement": "Patient-rated pruritus severity score, 1 Hour Change from Baseline, mean", "setting": "[1]; ITT Population", "value": "−1.36"},
      {"measurement": "Patient-rated pruritus severity score, 2 Hour Assessment, mean", "setting": "[1]; ITT Population", "value": 0.70},
      {"measurement": "Patient-rated pruritus severity score, Discharge Assessment, mean", "setting": "[1]; ITT Population", "value": 0.67},
      {"measurement": "Patient-rated pruritus severity score, Discharge Change from Baseline, mean", "setting": "[1]; ITT Population", "value": "−1.52"},
      {"measurement": "Physician-rated urticaria/erythema score, 1 Hour Assessment, mean", "setting": "[1]; ITT Population", "value": 1.42},
      {"measurement": "Physician-rated urticaria/erythema score, 1 Hour Change from Baseline, mean", "setting": "[1]; ITT Population", "value": "−0.42"},
      {"measurement": "Physician-rated urticaria/erythema score, 2 Hour Assessment, mean", "setting": "[1]; ITT Population", "value": 1.33},
      {"measurement": "Physician-rated urticaria/erythema score, 2 Hour Change from Baseline, mean", "setting": "[1]; ITT Population", "value": "−0.51"},
      {"measurement": "Physician-rated urticaria/erythema score, Discharge Assessment, mean", "setting": "[1]; ITT Population", "value": 1.33},
      {"measurement": "Physician-rated urticaria/erythema score, Discharge Change from Baseline, mean", "setting": "[1]; ITT Population", "value": "−0.51"},
      {"measurement": "Subject-rated sedation score, 1 Hour Assessment, mean", "setting": "[1]; ITT Population", "value": 1.10},
      {"measurement": "Subject-rated sedation score, 1 Hour Change from Baseline, mean", "setting": "[1]; ITT Population", "value": 0.70},
      {"measurement": "Subject-rated sedation score, 2 Hour Assessment, mean", "setting": "[1]; ITT Population", "value": 0.88},
      {"measurement": "Subject-rated sedation score, 2 Hour Change from Baseline, mean", "setting": "[1]; ITT Population", "value": 0.49},
      {"measurement": "Subject-rated sedation score, Discharge Assessment, mean", "setting": "[1]; ITT Population", "value": 0.86},
      {"measurement": "Subject-rated sedation score, Discharge Change from Baseline, mean", "setting": "[1]; ITT Population", "value": 0.47},
      {"measurement": "Time spent at the treatment center, Mean (SD)", "setting": "[1]; ITT Population", "value": "2.07 (1.112) Hours"},
      {"measurement": "Time spent at the treatment center, Median", "setting": "[1]; ITT Population", "value": 2.02, "unit": "h"},
      {"measurement": "Patient-rated pruritus severity score, 2 Hour Change from Baseline, mean (primary efficacy measure)", "setting": "[1]; ITT Population", "value": "−1.50"},
      {"measurement": "Patient-rated pruritus severity score, 2 Hour Change from Baseline, mean (primary efficacy measure)", "setting": "[1]; [5]", "value": "−1.50 (0.984)"},
      {"measurement": "Patient-rated pruritus severity score, Baseline Assessment, mean", "setting": "[1]; [6]", "value": 2.19},
      {"measurement": "Physician-rated urticaria/erythema score, Baseline Assessment, mean", "setting": "[1]; [6]", "value": 1.84},
      {"measurement": "Subject-rated sedation score, Baseline Assessment, mean", "setting": "[1]; [6]", "value": 0.39},
      {"measurement": "Subjects who returned to the treatment center: No", "setting": "[1]; [7]", "value": "116 (85.93)"},
      {"measurement": "Subjects who returned to the treatment center: Yes", "setting": "[1]; [7]", "value": "19 (14.07)"},
      {"measurement": "Time spent at the treatment center, Mean (SD)", "setting": "[1]; [5]", "value": "2.1 (1.1) Hours"},
      {"measurement": "Effectively treated subjects, yes", "setting": "[1]; Investigator's opinion, count (percentage)", "value": "93 (68.89)"},
      {"measurement": "Proportion of patients returning to any emergency department or clinic", "setting": "[1]; clinical trials, treatment group", "value": 14, "unit": "%"},
      {"measurement": "Subjects needed rescue drug, yes", "setting": "[1]; count (percentage)", "value": "37 (27.41)"},
      {"measurement": "Pruritus treatment success, yes", "setting": "[1]; score reduction of at least 1 unit at 2 hr, count (percentage)", "value": "111 (82.22)"}
    ]},
    {"smiles": "OCCOCCN1CCN(C(c2ccccc2)c2ccc(Cl)cc2)CC1", "note": "(stereo not shown) [hydroxyzine]", "values": [
      {"measurement": "Hemolysis", "setting": "[2]", "value": "significant problem"}
    ]}
  ]
}
